Measurements as given in PubChem BioAssay (NCI).
Where “and” joins values, the source holds several entries; their conditions need not be identical. Equal entries are not always repeated.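 Five concentrations, 48 hours, 96-well plates. GI50 marks 50% less growth. TGI denotes the concentration required for complete inhibition of growth.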

How the values were obtained:
Assay in all cases: inhibition of tumour cell growth, NCI panel, 48 h
NCI-H522 lung = test system: NCI-H522 lung
NCI/ADR-RES ovarian = test system: NCI/ADR-RES ovarian
HOP-62 NSCLC = test system: HOP-62 NSCLC
UO-31 renal = test system: UO-31 renal
NCI-H226 lung = test system: NCI-H226 lung
HL-60(TB) leukemia = test system: HL-60(TB) leukemia
IGROV1 ovarian = test system: IGROV1 ovarian
TK-10 renal = test system: TK-10 renal
OVCAR-3 ovarian = test system: OVCAR-3 ovarian
RXF 393 renal = test system: RXF 393 renal

| SMILES | GI50 (NCI-H522 lung) | TGI (NCI-H522 lung) | GI50 (NCI/ADR-RES ovarian) | TGI (NCI/ADR-RES ovarian) | GI50 (HOP-62 NSCLC) | TGI (HOP-62 NSCLC) | GI50 (UO-31 renal) | TGI (UO-31 renal) | GI50 (NCI-H226 lung) | TGI (NCI-H226 lung) | GI50 (HL-60(TB) leukemia) | TGI (HL-60(TB) leukemia) | GI50 (IGROV1 ovarian) | TGI (IGROV1 ovarian) | GI50 (TK-10 renal) | TGI (TK-10 renal) | GI50 (OVCAR-3 ovarian) | TGI (OVCAR-3 ovarian) | TGI (RXF 393 renal) | GI50 (RXF 393 renal) |
| --- | --- | --- | --- | --- | --- | --- | --- | --- | --- | --- | --- | --- | --- | --- | --- | --- | --- | --- | --- | --- |
| OCC#Cc1ccccc1C#CCCCCCC#Cc1ccccc1C#CCO | 14.6 µM | 29.6 µM | 18.8 µM | 36.7 µM | 16.2 µM | 31.4 µM | 17.1 µM | 33.8 µM | 21.8 µM | 38.9 µM | 18.8 µM | 41.8 µM | 18.7 µM | 43.3 µM | 27.1 µM | 76.8 µM | 16 µM | 32.9 µM | – | – |
| CC12CCC(Br)C(C)(C)C1CC=C1C(=O)OCC1O2 (configuration not stated) | – | 11.7 µM | – | 56.9 µM | – | – | – | > 42.6 µM | – | 23.2 µM | – | > 100 µM | – | 17.7 µM | – | 28.5 µM | – | 31.3 µM | 26.3 µM | – |
| Oc1ccc2oc3ncc(Br)c(-c4ccccc4)c3c2c1 | > 100 µM | > 100 µM | > 100 µM | > 100 µM | > 100 µM | > 100 µM | > 100 µM | > 100 µM | – | – | > 100 µM | > 100 µM | > 100 µM | > 100 µM | > 100 µM | > 100 µM | > 100 µM | > 100 µM | > 100 µM | > 100 µM |
| COc1cccc(/C=N/C(/N=C/c2cccc(OC)c2O)c2cccc(OC)c2O)c1O | – | 49.2 µM | – | 85.2 µM | – | > 100 µM | – | 58.6 µM | – | – | – | 68.5 µM | – | 62.8 µM | – | 55.6 µM | – | 62.4 µM | 29.2 µM | – |
| O=c1c(-c2ccccc2)coc2cc(OC/C(=N/O)c3ccccc3)ccc12 | 7.54 µM | 64.4 µM | 17.8 µM | 60 µM | 18.9 µM | 51.3 µM | 18.6 µM | 76.5 µM | 23.4 µM | > 100 µM | 21.3 µM | 95.9 µM | 17.5 µM | > 100 µM | 13.1 µM | 38.4 µM | 24.7 µM | 60.1 µM | – | – |
| Cc1ccc(O)c(NC(=O)c2ccc(CNc3ccnc(C(F)(F)F)c3)cc2)c1 | – | – | 4.68 µM | 37.8 µM | 4.79 µM | 30.5 µM | 1.12 µM | 13.3 µM | 4.52 µM | 38.8 µM | 1.21 µM | 14.8 µM | 1.82 µM | 16.4 µM | 10.8 µM | 40.1 µM | 11.3 µM | 28.2 µM | 63.1 µM | 25.4 µM |
| Clc1ccc(C(n2cc(Br)cn2)n2cc(Br)cn2)cc1 | – | 27.7 µM | – | – | – | 34.3 µM | – | 20 µM | – | 22.5 µM | – | 56.6 µM | – | 41.3 µM | – | 32 µM | – | 28 µM | 32.5 µM | – |
| CCN1CCN(CC(=O)N2c3cccc4cccc(c34)N(C(=O)CN3CCN(CC)CC3)C2c2cn(-c3ccccc3)nc2-c2cccc([N+](=O)[O-])c2)CC1 | – | – | 1.98 µM | 4.16 µM | 1.63 µM | 3.28 µM | 1.34 µM | 2.73 µM | – | – | 1.93 µM | 3.85 µM | 1.62 µM | 3.28 µM | 1.88 µM | 3.69 µM | 1.63 µM | 3.24 µM | 3.09 µM | 1.62 µM |
| CC(=O)C1=C(O)CC2CC3c4[nH]c5ccccc5c4CCN3CC2C1 (configuration not stated) | – | > 100 µM | – | – | – | > 100 µM | – | > 100 µM | – | > 100 µM | – | > 100 µM | – | > 100 µM | – | > 100 µM | – | > 100 µM | 82.3 µM | – |
| CN(C)c1ccc(/C=c2\sc3nc4ccccc4n3c2=O)cc1 | – | > 100 µM | – | – | – | > 100 µM | – | > 100 µM | – | > 100 µM | – | > 100 µM | – | > 100 µM | – | > 100 µM | – | > 100 µM | > 100 µM | – |
| O=c1c2cc(Cl)ccc2sc2cccc(Cl)c12 | – | > 100 µM | – | – | – | > 100 µM | – | > 100 µM | – | > 100 µM | – | > 100 µM | – | > 100 µM | – | > 100 µM | – | > 100 µM | > 100 µM | – |
| Cc1cn(-c2cc(NC(=O)c3ccc(C)c(Nc4nccc(-c5cccnc5)n4)c3)cc(C(F)(F)F)c2)cn1 | 3.46 µM and 4.18 µM | > 10 µM and 24.4 µM | 5.72 µM and 2.5 µM | > 10 µM and 16.1 µM | > 10 µM and 8.92 µM | > 10 µM and 26.3 µM | 1.75 µM and 1.58 µM | 8.9 µM and 4.56 µM | > 10 µM and 16.2 µM | > 10 µM and 39.8 µM | – | – | 2.23 µM and 1.83 µM | 5.06 µM and 4.2 µM | 5.26 µM and 4.07 µM | > 10 µM and 9.38 µM | 5.77 µM and 4.38 µM | > 10 µM and 11.5 µM | 6.54 µM and 4.12 µM | 2.59 µM and 2.01 µM |
| O=C(O)C1CC(O)CN1 (configuration not stated) | – | – | – | > 100 µM | – | > 100 µM | – | > 100 µM | – | > 100 µM | – | > 100 µM | – | > 100 µM | – | > 100 µM | – | > 100 µM | > 100 µM | – |
| Cc1cccc(C)c1NC(=O)C(=O)Nn1c(NN)nc2ccccc2c1=O | – | > 100 µM | – | – | – | > 100 µM | – | > 100 µM | – | > 100 µM | – | > 100 µM | – | > 100 µM | – | > 100 µM | – | > 100 µM | > 100 µM | – |
| N#CC1(C#N)C(C#N)(C#N)C12CCCCCC2 | – | 7.88 µM | – | – | – | > 89.4 µM | – | 32.8 µM | – | 47.5 µM | – | 20.6 µM | – | > 68.8 µM | – | 30.5 µM | – | 29.7 µM | 22.9 µM | – |
| CC1OC(n2cc(F)c(=O)[nH]c2=O)C=CC1=O (configuration not stated) | – | 23.2 µM | – | – | – | > 100 µM | – | 30.3 µM | – | 66.4 µM | – | 70.3 µM | – | > 100 µM | – | 30.7 µM | – | 29.6 µM | 30.4 µM | – |
| O=Cc1c(O)c(C(=O)Nc2ccc3[nH]c(=O)[nH]c3c2)cc2ccccc12 | – | > 100 µM | – | – | – | > 100 µM | – | > 100 µM | – | > 100 µM | – | > 100 µM | – | > 100 µM | – | > 100 µM | – | > 100 µM | > 100 µM | – |
| CC(C)(c1ccccc1)c1ccc(OC#N)cc1 | – | 24.4 µM | – | – | – | > 100 µM | – | 98 µM | – | > 100 µM | – | > 77.9 µM | – | > 100 µM | – | > 100 µM | – | > 100 µM | > 100 µM | – |
| CCN(CC)c1ccc(N=Nc2ccc(-c3nc4ccc[n+](C)c4o3)cc2)cc1 | – | 18.5 µM | – | – | – | 29.9 µM | – | 25.4 µM | – | 27.6 µM | – | 7.32 µM | – | 30.8 µM | – | 24.7 µM | – | 21.8 µM | 22.6 µM | – |
| NC(N)=NS(=O)(=O)c1ccc(NCCc2c3ccccc3nc3ccccc23)cc1 | – | > 100 µM | – | – | – | > 100 µM | – | > 100 µM | – | > 100 µM | – | 82.5 µM | – | > 100 µM | – | > 100 µM | – | > 100 µM | > 100 µM | – |
| COC(=O)/C=C/c1cc2c(cc1-c1c(C(=O)O)cc(OC)c(OC)c1OC)OCO2 | – | > 10 µM | – | > 10 µM | – | > 10 µM | – | – | – | – | – | > 10 µM | – | > 10 µM | – | > 10 µM | – | > 10 µM | – | – |
| COC(=O)[C@@H](C)C[C@H](Cc1ccccc1)NC(=O)c1csc([C@@H](C[C@H](C(C)C)N(C)C(=O)[C@@H](NC(=O)[C@H]2CCCCN2C)C2CC2)OC(C)=O)n1 | 0.000247 µM and < 0.00165 µM | 0.000988 µM and < 0.00165 µM | 0.0488 µM and 0.0603 µM | > 16.5 µM | 0.000745 µM and 0.00165 µM | > 16.5 µM | 0.00516 µM and 0.00284 µM | > 16.5 µM | 0.009 µM and 0.00417 µM | 1.18 µM | 0.000235 µM and < 0.00165 µM | 0.000839 µM and < 0.00165 µM | 0.00104 µM and 0.00165 µM | > 16.5 µM | – | – | 4.97e-05 µM and < 0.00165 µM | 0.00379 µM and < 0.00165 µM | – | – |
| COC(=O)CC[C@H](Cc1ccccc1)NC(=O)c1csc([C@@H](C[C@H](C(C)C)N(C)C(=O)[C@@H](NC(=O)[C@H]2CCCCN2C)C(C)C)OC(C)=O)n1 | – | – | 0.0714 µM | > 25 µM | < 0.0025 µM | > 25 µM | 0.0165 µM | > 25 µM | – | – | – | – | 0.00331 µM | > 25 µM | > 25 µM | > 25 µM | < 0.0025 µM | > 25 µM | > 25 µM | < 0.0025 µM |
| Cc1ccc(Cl)cc1NC(=O)c1sc2nc3c(cc2c1N)C(=O)CCC3 | 2.17 µM | 4.95 µM | 5.28 µM | > 100 µM | > 100 µM | > 100 µM | > 100 µM | > 100 µM | > 100 µM | > 100 µM | – | – | > 100 µM | > 100 µM | 8.99 µM | > 100 µM | – | – | 6.96 µM | 2.48 µM |
| CN(C)CC/[N+]([O-])=C(/c1ccccc1)C12CC3CC(CC(C3)C1)C2 | – | 29.2 µM | – | – | – | 28.9 µM | – | 24.6 µM | – | 27.5 µM | – | 26.1 µM | – | 33.9 µM | – | 30.7 µM | – | 27.8 µM | 32.9 µM | – |
| O=c1cccccc1[O-].O=c1cccccc1[O-].O=c1cccccc1[O-].[La+3] | – | 84.2 µM | – | – | 31.4 µM | 78.5 µM | – | 65.8 µM | – | 99 µM | – | 30.9 µM | – | 75.8 µM | – | 67.9 µM | – | 55.8 µM | 31.9 µM | – |
| N#Cc1cccc(/C=N/N=C(\N)NO)c1 | – | > 100 µM | – | – | – | > 100 µM | – | > 100 µM | – | > 100 µM | – | > 100 µM | – | > 100 µM | – | > 100 µM | – | > 100 µM | > 100 µM | – |
| C=CCC1C(=O)CC2(C)CC(=O)C(CC=C)C12C (configuration not stated) | – | > 100 µM | – | – | – | > 100 µM | – | > 100 µM | – | > 100 µM | – | > 100 µM | – | > 100 µM | – | > 100 µM | – | > 100 µM | > 100 µM | – |
